The subject of experiment [1] is CYPIR. In words: Postemergence foliar-applied weed control, direct seeded rice, greenhouse (Example I). The format is in vivo, Cyperus iria L. The conditions noted are these: g ae/ha Compound A Benzyl Ester+g ai/ha carfentrazone-ethyl: r11 8.75+0, r12 0+3.5, r13 0+7, r14 0+14, r15 8.75+3.5, r16 8.75+7, r17 8.75+14.
Experiment [2] relates to ECHCG. The description is as above. The format is in vivo, Echinochloa crusgalli (L.) Beauv.
Experiment [3] has as its system DIGSA. The description is as above. The format is in vivo, Digitaria sanguinalis (L.) Scop. Conditions: g ae/ha Compound A Acid+g ai/ha carfentrazone-ethyl: r11 4.38+0, r12 8.75+0, r13 17.5+0, r14 0+14, r15 4.38+14, r16 8.75+14, r17 17.5+14.
The subject of experiment [4] is LEFCH. Kind of experiment: In-water applied weed control, transplanted paddy rice, greenhouse (Example II). It is filed as in vivo, Leptochloa chinensis (L.) Nees. The conditions noted are these: g ae/ha Compound A Benzyl Ester+g ai/ha carfentrazone-ethyl: r11 8.75+0, r12 17.5+0, r13 35+0, r14 0+28, r15 8.75+28, r16 17.5+28, r17 35+28.
Experiment [5] concerns LEFCH. Kind of experiment: Postemergence foliar-applied weed control, direct seeded rice, greenhouse (Example I). It is filed as in vivo, Leptochloa chinensis (L.) Nees.
The test system of experiment [6] is ECHOR. In words: In-water applied weed control, transplanted paddy rice, greenhouse (Example II). It is filed as in vivo, Echinochloa oryzoides (Ard.) Fritsch.
Experiment [7] relates to CYPES. In words: Postemergence foliar-applied weed control, direct seeded rice, greenhouse (Example I). The conditions noted are these: g ae/ha Compound A Acid+g ai/ha carfentrazone-ethyl: r27 4.38+0, r28 8.75+0, r29 0+7, r30 0+14, r31 4.38+7, r32 8.75+7, r33 4.38+14, r34 8.75+14. The format is in vivo, Cyperus esculentus L.
The subject of experiment [8] is ECHCG. Kind of experiment: In-water applied weed control, transplanted paddy rice, greenhouse (Example II). The format is in vivo, Echinochloa crus-galli (L.) P. Beauv. Conditions: g ae/ha Compound A Acid+g ai/ha pyraclonil: r11 8.75+0, r12 17.5+0, r13 0+45, r14 8.75+45, r15 17.5+45.
The subject of experiment [9] is ISCRU. Kind of experiment: Postemergence foliar-applied weed control, direct seeded rice, greenhouse (Example I). The format is in vivo, Ischaemum rugosum Salisb. Conditions: g ae/ha Compound A Benzyl Ester+g ai/ha pyraclonil: r37 8+0, r38 16+0, r39 0+67.5, r40 0+135, r41 0+270, r42 8+67.5, r43 16+67.5, r44 8+135, r45 16+135, r46 8+270, r47 16+270.
Experiment [10] deals with IPOHE. The description is as above. The format is in vivo, Ipomoea hederacea Jacq.
The subject of experiment [11] is BRAPP. Described as above. The format is in vivo, Brachiaria platyphylla (Griseb.) Nash. Conditions: g ae/ha Compound A Acid+g ai/ha pyraclonil: r11 4.38+0, r12 0+33.75, r13 0+67.5, r14 0+135, r15 4.38+33.75, r16 4.38+67.5, r17 4.38+135.
Experiment [12] concerns CYPRO. In words: In-water applied weed control, transplanted paddy rice, greenhouse (Example II). The conditions noted are these: g ae/ha Compound A Benzyl Ester+g ai/ha pyraclonil: r19 4.38+0, r20 8.75+0, r21 0+45, r22 0+90, r23 4.38+45, r24 8.75+45, r25 4.38+90, r26 8.75+90. The format is in vivo, Cyperus rotundus L.

“And” between values parts separate entries of the source, which are not always exact repeats. Equal entries are not always repeated.

With `CCOC(=O)C(Cl)Cc1cc(-n2nc(C)n(C(F)F)c2=O)c(F)cc1Cl` (stereo not drawn) [Carfentrazone-ethyl, ethyl α,2-dichloro-5-[4-(difluoromethyl)-4,5-dihydro-3-methyl-5-oxo-1H-1,2,4-triazol-1-yl]-4-fluorobenzenepropanoate, reference compound], in experiment [1], the “Visual Weed Control (%) - 21 DAA CYPIR Obs” value was 0%. Further, the “Visual Weed Control (%) - 21 DAA ECHCG Obs” value was 10% in experiment [2] (g ae/ha Compound A Acid+g ai/ha carfentrazone-ethyl: r11 4.38+0, r12 8.75+0, r13 17.5+0, r14 0+14, r15 4.38+14, r16 8.75+14, r17 17.5+14); 0% and 10% in experiment [2] (g ae/ha Compound A Benzyl Ester+g ai/ha carfentrazone-ethyl: r11 8.75+0, r12 0+3.5, r13 0+7, r14 0+14, r15 8.75+3.5, r16 8.75+7, r17 8.75+14). In experiment [3], the “Visual Weed Control (%) - 21 DAA DIGSA Obs” value amounted to 0%. Further, the “Visual Weed Control (%) - 21 DAA LEFCH Obs” value in experiment [4] came to 10%. The “Visual Weed Control (%) - 19 DAA LEFCH Obs” value in experiment [5] (g ae/ha Compound A Acid+g ai/ha carfentrazone-ethyl: r39 19.4+0, r40 0+28, r41 19.4+28) was found to be 10%; in experiment [5] (g ae/ha Compound A n-Butyl Ester+g ai/ha carfentrazone-ethyl: r11 16+0, r12 0+28, r13 16+28) it was 10%. In [6] (g ae/ha Compound A Acid+g ai/ha carfentrazone-ethyl: r28 42.4+0, r29 0+215, r30 42.4+215), the “Visual Weed Control (%) - 19 DAA ECHOR Obs” value came out at 65%. Further, the “Visual Weed Control (%) - 21 DAA CYPES Obs” value in [7] is 0%.

Consider `C#CCN(C)c1c(C#N)cnn1-c1nn2c(c1Cl)CCCC2` [Pyraclonil, 1-(3-chloro-4,5,6,7-tetrahydropyrazolo[1,5-a]pyridin-2-yl)-5-(methyl-2-propynylamino)-1H-pyrazole-4-carbonitrile, reference compound], for which the “Visual Weed Control (%) - 20 DAA ECHCG Obs” value in [2] (g ae/ha Compound A Acid+g ai/ha pyraclonil: r24 4.38+0, r25 8.75+0, r26 0+33.75, r27 0+67.5, r28 0+135, r29 4.38+33.75, r30 8.75+33.75, r31 4.38+67.5, r32 8.75+67.5, r33 4.38+135, r34 8.75+135) is given as 0%; in [8] it was 0%. Also, in [2] (g ae/ha Compound A Acid+g ai/ha pyraclonil: r44 17.5+0, r45 35+0, r46 0+270, r47 17.5+270, r48 35+270), the “Visual Weed Control (%) - 21 DAA ECHCG Obs” value is 0%. Further, in experiment [6] (g ae/ha Compound A Benzyl Ester+g ai/ha pyraclonil: r11 4.38+0, r12 8.75+0, r13 17.5+0, r14 0+45, r15 4.38+45, r16 8.75+45, r17 17.5+45), the “Visual Weed Control (%) - 20 DAA ECHOR Obs” value is 40%. Besides, in [9], the “Visual Weed Control (%) - 21 DAA ISCRU Obs” value worked out at 0%. For the same compound, the “Visual Weed Control (%) - 21 DAA IPOHE Obs” value was found to be 45% in experiment [10] (g ae/ha Compound A Acid+g ai/ha pyraclonil: r53 35+0, r54 0+270, r55 35+270) and 45% in experiment [10] (g ae/ha Compound A Benzyl Ester+g ai/ha pyraclonil: r27 17.5+0, r28 35+0, r29 0+270, r30 17.5+270, r31 35+270). The “Visual Weed Control (%) - 20 DAA BRAPP Obs” value in experiment [11] is 0%. The “Visual Weed Control (%) - 20 DAA CYPRO Obs” value in experiment [12] was found to be 0%.

(Values after patent US8916499B2, “Herbicidal compositions comprising 4-amino-3-chloro-5-fluoro-6-(4-chloro-2-fluoro-3-methoxyphenyl) pyridine-2-carboxylic acid or a derivative thereof and a protoporphyrinogen oxidase inhibitor” (Dow AgroSciences LLC, priority 2012, dated 2014).)
